Measurements published in patent US9018451B2, “Optimized expression of glyphosate resistance encoding nucleic acid molecules in plant cells” (M S Technologies, LLC, priority 2010, dated 2015).

Assays:
Assay in all cases: Field trial, in planta tolerance to glyphosate, injury assessed seven days after application
Format in all cases: in vivo, Glycine max
[1] = test system: Soybean event 8291-4524 expressing 2mEPSPS (construct pDAB8291); details: 7 days after application
Procedure: (§1) Soybean events containing the 2mEPSPv2 expression cassette construct from pDAB8291 are tolerant to glyphosate. Field trials were performed during the 2009 and 2010 growing seasons. The plots were planted with the transgenic soybean seed which had been produced from the transformation with pDAB8291 and non-transgenic soybean (cv Maverick) which was used as a control. Field grown soybean plants from the T2 and T4 generation were sprayed with high rates of glyphosate. Glyphosate (DURANGO® herbicide Dow AgroSciences, Indianapolis, Ind.) applications were made at the V3 or V5 stage of plant development at a rate of 2,240 g ae/ha. Seven days after glyphosate application, the plants were assessed for injury.

[2] = test system: Soybean event 8291-4536 expressing 2mEPSPS (construct pDAB8291); details: 7 days after application
Procedure: as §1

[3] = test system: non-transgenic soybean (cv Maverick); details: Maverick non-transgenic control, 7 days after application
Procedure: as §1

[4] = test system: soybean plants transformed with pDAB8291; details: T2 and T4 field grown plants, 2,240 g ae/ha at V3 or V5, seven days after application
Procedure: as §1

## O=C(O)CNCP(=O)(O)O [Glyphosate, N-phosphonomethylglycine]
[1]; event 8291-4524, T2 generation, application at V3, 2,240 g ae/ha glyphosate
  Adjusted Mean Injury 7daa(%): 10%
[1]; event 8291-4524, T4 generation, application at V5, 2,240 g ae/ha glyphosate
  Adjusted Mean Injury 7daa(%): 0.5%
[2]; event 8291-4536, T2 generation, application at V3, 2,240 g ae/ha glyphosate
  Adjusted Mean Injury 7daa(%): 3.5%
[2]; event 8291-4536, T4 generation, application at V5, 2,240 g ae/ha glyphosate
  Adjusted Mean Injury 7daa(%): 0.75%
[3]; T2 trial, application at V3, 2,240 g ae/ha glyphosate
  Adjusted Mean Injury 7daa(%): 100%
[3]; T4 trial, application at V5, 2,240 g ae/ha glyphosate
  Adjusted Mean Injury 7daa(%): 100%
[4]
  injury (damage) to plants as compared to Maverick controls: Minimal damage
